# Experimental data published in US20060165717A1 (priority 2005, published 2006).
# Tested on: Balb/c mice
# Assay: Immunization of mice with detoxified TAT vaccine compositions; TAT-specific IgG by ELISA
# Assay type: in vivo
# Details: 2 subcutaneous injections D0, D21, 1 μg TAT antigen
# Procedure: Vaccine compositions comprising, as antigen, a detoxified TAT III B protein are prepared. The TAT protein was detoxified by means of an alkylation reaction in an alkaline medium using iodoacetamide under the following conditions: number of micromoles of iodoacetamide=200×number of micromoles of TAT+number of micromoles of DTT. This detoxified protein and the method for preparing it are described in detail in application WO 99/33346, where it is identified under the term “carboxymethylated TAT”.
# Immunizing doses having the following composition are the obtained:
# Adult Balb/c mice and 1-week-old “newborn” Balb/c mice are provided and are divided up into groups of 6 to 8 (groups of young mice) or of 5 to 6 (groups of adult mice). Experiments are carried out with 2 subcutaneous injections of the same vaccine formulation at D0 and at D21. Blood samples are taken after the booster injection. The TAT-specific immunoglobulins are assayed by the ELISA technique. A total of 10 to 40 mice per formulation was tested in several independent experiments: for the DC-Chol: 27 adults, 38 newborns; for the aluminum oxyhydroxide: 18 adults, 22 newborns; for the emulsion: 10 adults and 16 newborns; and in saline solution: 10 adults and 15 newborns. […]
substance,measurement,setting,value
"3β-[N-(N′,N′-dimethyl-aminoethane)carbamoyl]cholesterol [DCchol]","adjuvant effect on TAT-specific total IgG response (FIG. 1), in words",adult Balb/c mice,capable of increasing the immune response
same,"adjuvant effect on TAT-specific total IgG response (FIG. 1), in words",newborn (1-week-old) Balb/c mice,capable of increasing the immune response
